Each structure is given as a SMILES string.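 Results reflect a 48-hour exposure of cells in 96-well plates to compound at five concentrations. GI50 = concentration required for 50% inhibition of growth. Definition used: TGI = concentration required for complete inhibition of growth.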 Where a SMILES comes first, the peptide text is derived from it.

Here are results for 12 molecules from PubChem BioAssay (NCI).

Among the test systems are A549 NSCLC; NCI/ADR-RES ovarian; SN12C renal; NCI-H460 lung; IGROV1 ovarian; 786-0 renal; COLO 205 colon; LOX IMVI melanoma; M14 melanoma; CCRF-CEM leukemia.
Common to all, as to experiment: inhibition of tumour cell growth, NCI panel, 48 h

With `O=C(Nc1ccccc1)Nc1cccc(-n2cc(-c3ccncc3)c(-c3ccc(O)c(Cl)c3)n2)c1`, the GI50 in the assay on A549 NSCLC is 3.64 µM; in the assay on NCI/ADR-RES ovarian, 6.49 µM; in the assay on SN12C renal it was 4.13 µM; in the assay on NCI-H460 lung, 3.24 µM; in the assay on IGROV1 ovarian, 6.06 µM; with 786-0 renal it was 3.24 µM. Further, the GI50 with COLO 205 colon is 4.95 µM; with LOX IMVI melanoma, 2.54 µM; in the assay with M14 melanoma, 3.1 µM; in the assay on CCRF-CEM leukemia it was 3.22 µM. Moreover, the TGI was above 100 µM in the assay with A549 NSCLC; 82.6 µM in the assay on NCI/ADR-RES ovarian; above 100 µM in the assay on SN12C renal; 17.1 µM with NCI-H460 lung; 41.4 µM in the assay with IGROV1 ovarian; 11.7 µM in the assay with 786-0 renal. For the same molecule, the TGI with COLO 205 colon is 21 µM; in the assay on LOX IMVI melanoma, 25.6 µM; in the assay on M14 melanoma, 9.47 µM; in the assay on CCRF-CEM leukemia, 27.5 µM.
`CC(C)CC(NC(=O)C(CC(C)C)NC(=O)C(Cc1cnc[nH]1)NC(=O)C(C)NC(=O)C(NC(=O)C(C)NC(=O)C(Cc1c[nH]c2ccccc12)NC(=O)C(CCC(=O)O)NC(=O)C(N)Cc1ccccc1)C(C)C)C(N)=O` (stereo unspecified) (H-FEWAVAHLL-NH2; configuration not given here): the GI50 in the assay on A549 NSCLC, in the assay with SN12C renal, in the assay with NCI-H460 lung, in the assay with IGROV1 ovarian, in the assay on 786-0 renal and in the assay with COLO 205 colon was above 100 µM throughout. In addition, the GI50 with M14 melanoma and with CCRF-CEM leukemia was above 100 µM each time. In addition, the TGI in the assay on A549 NSCLC is above 100 µM; in the assay with NCI/ADR-RES ovarian, above 12.5 µM; with SN12C renal it was above 100 µM; with NCI-H460 lung, above 100 µM; in the assay with IGROV1 ovarian, above 100 µM; in the assay with 786-0 renal, above 100 µM. For the same molecule, the TGI in the assay on COLO 205 colon is above 100 µM; in the assay on LOX IMVI melanoma, above 12.5 µM; with M14 melanoma it was above 100 µM; in the assay with CCRF-CEM leukemia it was above 100 µM.
As to `O=[N+]([O-])c1cc(CCl)ccc1CCl`, the TGI was 16.9 µM in the assay on A549 NSCLC; 8.84 µM in the assay on NCI/ADR-RES ovarian; 2.97 µM in the assay with SN12C renal; above 39.3 µM in the assay with NCI-H460 lung; 2.92 µM with IGROV1 ovarian; 3.34 µM in the assay on 786-0 renal. The TGI is 3.19 µM in the assay with COLO 205 colon, 4.12 µM in the assay with LOX IMVI melanoma, 3.59 µM in the assay with M14 melanoma and 3.14 µM in the assay on CCRF-CEM leukemia.
`N#CC(=S)Nc1ccc(Cl)c(Cl)c1`: the TGI with A549 NSCLC is above 100 µM; in the assay on NCI/ADR-RES ovarian, 65.4 µM; in the assay on SN12C renal, above 68.5 µM; with NCI-H460 lung, above 100 µM; in the assay on IGROV1 ovarian it was 53.8 µM; in the assay on 786-0 renal it was above 66.9 µM. Moreover, the TGI was 49.5 µM in the assay with COLO 205 colon, 66.2 µM with LOX IMVI melanoma, above 60.6 µM in the assay on M14 melanoma and 15.2 µM in the assay on CCRF-CEM leukemia. Besides, in the assay on NCI-H460 lung, the GI50 is 16 µM.
For the molecule `COc1cc(C#N)cc(OC)c1OCCOCCOc1c(OC)cc(C#N)cc1OC`, the GI50 was above 100 µM in the assay with A549 NSCLC; 24.8 µM with NCI/ADR-RES ovarian; above 100 µM in the assay on SN12C renal; 84.6 µM in the assay on NCI-H460 lung; 89.2 µM with IGROV1 ovarian; above 100 µM in the assay with 786-0 renal. Further, the GI50 in the assay with COLO 205 colon was 37.2 µM; with LOX IMVI melanoma it was above 100 µM; with M14 melanoma it was 52.2 µM; in the assay on CCRF-CEM leukemia, 38.8 µM. Further, the TGI with A549 NSCLC, with NCI/ADR-RES ovarian, in the assay on SN12C renal, in the assay with NCI-H460 lung, with IGROV1 ovarian and in the assay on 786-0 renal was above 100 µM in each case. Besides, the TGI in the assay on COLO 205 colon, in the assay on LOX IMVI melanoma, with M14 melanoma and in the assay with CCRF-CEM leukemia was above 100 µM each time.
In the case of `O=c1cc(-c2ccc(Cl)cc2)[nH]c2ncccc12`, the TGI in the assay on A549 NSCLC, with NCI/ADR-RES ovarian, with SN12C renal, in the assay on NCI-H460 lung, with IGROV1 ovarian and in the assay with 786-0 renal was above 100 µM in each case. Moreover, the TGI in the assay on COLO 205 colon was 83 µM; with LOX IMVI melanoma, above 100 µM; with M14 melanoma it was above 100 µM; in the assay with CCRF-CEM leukemia, above 100 µM. Also, the GI50 in the assay with NCI-H460 lung is 37.9 µM; in the assay with 786-0 renal, 34.1 µM.
Consider `CCOC(=O)/C(=C/c1ccc([N+](=O)[O-])cc1)C(=O)c1ccccc1`, for which the GI50 in the assay on A549 NSCLC was 6.28 µM; with NCI/ADR-RES ovarian, 3.43 µM; in the assay with SN12C renal it was 1.76 µM; in the assay on NCI-H460 lung, 2.69 µM; in the assay with IGROV1 ovarian, 2.53 µM; in the assay with 786-0 renal, 1.82 µM. In addition, the GI50 is 1.95 µM in the assay on COLO 205 colon, 1.77 µM in the assay on LOX IMVI melanoma, 2.11 µM in the assay on M14 melanoma and 3.03 µM with CCRF-CEM leukemia. In addition, the TGI is 20.6 µM in the assay on A549 NSCLC; 19.8 µM in the assay with NCI/ADR-RES ovarian; 3.76 µM in the assay on SN12C renal; 7.15 µM in the assay on NCI-H460 lung; 7.4 µM in the assay with IGROV1 ovarian; 3.45 µM with 786-0 renal. The TGI worked out at 3.89 µM with COLO 205 colon, 3.38 µM in the assay on LOX IMVI melanoma, 5.01 µM in the assay with M14 melanoma and 9.11 µM in the assay on CCRF-CEM leukemia.
With `Cn1ncc2c(/N=C/c3cccs3)[nH]c(=S)nc21`, the GI50 is 47.4 µM in the assay on A549 NSCLC; above 100 µM with NCI/ADR-RES ovarian; above 36 µM with SN12C renal; 31 µM in the assay on NCI-H460 lung; above 61.2 µM in the assay with IGROV1 ovarian; 60.1 µM in the assay with 786-0 renal. Also, the GI50 in the assay with COLO 205 colon is 22.8 µM; in the assay on LOX IMVI melanoma, 36.4 µM; with M14 melanoma, 45.7 µM; in the assay on CCRF-CEM leukemia it was 55.7 µM. Moreover, the TGI is above 100 µM in the assay with A549 NSCLC; above 100 µM with NCI/ADR-RES ovarian; above 69.2 µM in the assay with SN12C renal; above 100 µM with NCI-H460 lung; above 100 µM with IGROV1 ovarian; above 100 µM in the assay on 786-0 renal. The TGI was 65.7 µM in the assay with COLO 205 colon, above 100 µM in the assay on LOX IMVI melanoma, above 100 µM with M14 melanoma and above 100 µM with CCRF-CEM leukemia.
As to `O=C1N=C(c2ccccc2)OC1C(=O)c1ccccc1` (stereo unspecified), the TGI in the assay on A549 NSCLC, in the assay on NCI/ADR-RES ovarian, in the assay on SN12C renal, with NCI-H460 lung, in the assay with IGROV1 ovarian and in the assay with 786-0 renal was above 100 µM in each case. Moreover, the TGI with COLO 205 colon, in the assay with LOX IMVI melanoma, in the assay with M14 melanoma and with CCRF-CEM leukemia was above 100 µM in each case.
Turning to `COc1ccc(/C=C2\CN(Cc3cn(CCCNc4ccnc5cc(Cl)ccc45)nn3)C/C(=C\c3ccc(OC)c(OC)c3)C2=O)cc1OC`, the GI50 in the assay on A549 NSCLC is 1.71 µM; in the assay on NCI/ADR-RES ovarian, above 100 µM; with SN12C renal, 1.33 µM; in the assay on NCI-H460 lung, 0.806 µM; with IGROV1 ovarian it was 1.05 µM; with 786-0 renal, 1.95 µM. For the same molecule, the GI50 in the assay on COLO 205 colon was 1.03 µM; in the assay with LOX IMVI melanoma, 1.08 µM; with M14 melanoma, 2.59 µM; in the assay on CCRF-CEM leukemia, 0.571 µM. Further, the TGI in the assay with A549 NSCLC is 4.11 µM; with NCI/ADR-RES ovarian, above 100 µM; in the assay with SN12C renal, 3.12 µM; with NCI-H460 lung, 2.12 µM; with IGROV1 ovarian, 2.41 µM; with 786-0 renal it was 4.39 µM. Also, the TGI with COLO 205 colon is 2.39 µM; in the assay on LOX IMVI melanoma it was 2.43 µM; in the assay on M14 melanoma, 9.68 µM; in the assay with CCRF-CEM leukemia it was 8.65 µM.
With `ClCc1ccc(-c2ccc(Cn3cnc4c(Cl)nc(Cl)nc43)cc2)cc1`, the GI50 was 1.73 µM in the assay with A549 NSCLC; 2.5 µM in the assay on NCI/ADR-RES ovarian; 2.72 µM in the assay with SN12C renal; 3 µM in the assay on NCI-H460 lung; 0.885 µM in the assay on IGROV1 ovarian; 6.43 µM in the assay on 786-0 renal. The GI50 with COLO 205 colon is 2.72 µM; in the assay on LOX IMVI melanoma, 1.64 µM; with M14 melanoma it was 13.4 µM; with CCRF-CEM leukemia, 2.36 µM. Also, the TGI in the assay with A549 NSCLC came out at 3.59 µM; in the assay with NCI/ADR-RES ovarian it was 7.55 µM; in the assay with SN12C renal it was 8.93 µM; with NCI-H460 lung, 10.6 µM; in the assay on IGROV1 ovarian, 2.28 µM; in the assay with 786-0 renal, 19.6 µM. Also, the TGI in the assay with COLO 205 colon came to 8.53 µM; in the assay on LOX IMVI melanoma, 3.2 µM; in the assay with M14 melanoma, 32.3 µM; with CCRF-CEM leukemia it was 5.9 µM.
For `COC(=O)C(C)NP(=O)(OCc1ccc(Cn2cnc3c(=O)[nH]c(N)nc32)cc1)Oc1ccccc1` (stereo unspecified), the GI50 in the assay with A549 NSCLC, in the assay with NCI/ADR-RES ovarian, in the assay on SN12C renal, in the assay with NCI-H460 lung, in the assay on IGROV1 ovarian and with 786-0 renal was above 100 µM each time. Also, the GI50 with COLO 205 colon, with LOX IMVI melanoma, with M14 melanoma and with CCRF-CEM leukemia was above 100 µM in each case. The TGI in the assay on A549 NSCLC, with NCI/ADR-RES ovarian, in the assay on SN12C renal, in the assay on NCI-H460 lung, with IGROV1 ovarian and with 786-0 renal was above 100 µM in each case. Besides, the TGI in the assay with COLO 205 colon, with LOX IMVI melanoma, with M14 melanoma and in the assay on CCRF-CEM leukemia was above 100 µM each time.
